From US20030144346A1, “Methods and compositions for regulation of 5-alpha reductase activity” (priority 1997, published 2003)

Assays:
[1] = molecular target: T1, type 1 human 5α-reductase (HRED1) (Homo sapiens, UniProt P18405); experiment: Whole cell assay of 5α-reductase, type 1 isoenzyme; assay type: cell-based; set-up: expressed in transfected cells; host or cells: rat 1A cells infected with pMV7 retrovirus;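 note: intact rat 1A cells engineered to express the human type 1 5α-reductase isozyme serve as the enzyme source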
T1 sequence (P18405 1-259): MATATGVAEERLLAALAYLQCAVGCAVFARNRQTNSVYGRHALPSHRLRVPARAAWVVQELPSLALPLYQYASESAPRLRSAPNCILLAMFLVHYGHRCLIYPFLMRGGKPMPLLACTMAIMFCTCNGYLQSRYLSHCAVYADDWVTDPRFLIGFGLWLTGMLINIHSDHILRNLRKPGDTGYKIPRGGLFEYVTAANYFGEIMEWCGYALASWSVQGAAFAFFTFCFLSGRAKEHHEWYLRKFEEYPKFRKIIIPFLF

[2] = molecular target: T1, type 1 human 5α-reductase (HRED1); experiment: Cell free assay of 5α-reductase, microsomes of rat 1A cells expressing type 1 isoenzyme (HRED1); assay type: biochemical; set-up: expressed in transfected cells; host or cells: rat 1A cells infected with pMV7 retrovirus; microsomes; settings: for HRED1 % Inhibition @ 100 μM: Table 5; for inhibitory activity against type 1 isoenzyme, in words: cell-free assay;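 for all read-outs here: microsomes from rat 1A cells expressing human type 1 5α-reductase, conversion of radiolabeled testosterone to dihydrotestosterone quantified by thin layer chromatography with radioanalytic scanning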
[3] = molecular target: T2, type 2 human 5α-reductase (HRED2) (Homo sapiens, UniProt P31213); experiment: Cell free assay of 5α-reductase, microsomes of rat 1A cells expressing type 2 isoenzyme (HRED2); assay type: biochemical; set-up: expressed in transfected cells; host or cells: rat 1A cells infected with pMV7 retrovirus; microsomes; settings: for HRED2 % Inhibition @ 100 μM: Table 5;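 for all read-outs here: labeled testosterone and its product dihydrotestosterone measured in microsomal reaction extracts via thin layer chromatography plus radioanalytic scanning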
T2 sequence (P31213 1-254): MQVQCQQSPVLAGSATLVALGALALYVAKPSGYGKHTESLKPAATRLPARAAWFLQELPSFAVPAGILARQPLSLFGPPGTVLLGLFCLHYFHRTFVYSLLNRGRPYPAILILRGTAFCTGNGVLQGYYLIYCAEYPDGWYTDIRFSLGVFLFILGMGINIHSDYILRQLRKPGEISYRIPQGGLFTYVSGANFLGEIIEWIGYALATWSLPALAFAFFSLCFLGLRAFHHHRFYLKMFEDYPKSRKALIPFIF

[4] = molecular target: T2, type 2 human 5α-reductase (HRED2); experiment: Whole cell assay of 5α-reductase, type 2 isoenzyme; assay type: cell-based; set-up: expressed in transfected cells; host or cells: rat 1A cells infected with pMV7 retrovirus; settings: for inhibition at 100 µM / HRED2 % Inhibition @ 100 μM: Table 7; for IC50: Table 7, read-out: HCRED2 IC50;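 for all read-outs here: intact rat 1A cells genetically modified to carry human type 2 5α-reductase served as the enzyme source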
[5] = whole cell assay, Table 7, read-out: HCRED1 IC50
[6] = cell free assay, Table 5 epigallocatechin derivatives, read-out: HRED1 IC50
[7] = cell free assay, Table 5 epigallocatechin derivatives, read-out: HRED2 IC50
[8] = 100 uM, cell free assay, Table 2
[9] = cell free assay, Table 2 catechols, read-out: HRED1 IC50
[10] = cell free assay, Table 2 catechols, read-out: HRED2 IC50
[11] = 100 uM, cell free assay, Table 2, read-out: HRED1 % Inhibition @ 100 uM
[12] = 100 uM, cell free assay, Table 2, read-out: HRED2 % Inhibition @ 100 uM

Row | SMILES | IC50 [4] | HRED1 % Inhibition @ 100 μM ([1]; whole cell assay, Table 7) | IC50 [1, 5] | HRED1 % Inhibition @ 100 μM ([2]; cell free assay) | IC50 [2, 6] | HRED2 % Inhibition @ 100 μM ([3]; 100 μM, cell free assay) | IC50 [3, 7] | HRED2 % Inhibition @ 100 μM [4] | further results
1 | Cc1cc2c(C(C)C)c(O)c(O)c(C=O)c2c(O)c1-c1c(C)cc2c(C(C)C)c(O)c(O)c(C=O)c2c1O [Gossypol] | 6 µM | – | – | – | – | – | – | – | IC50 [1]: 7 µM; inhibition at 100 µM ([1]; whole cell assay, Table 7): 100%; inhibitory activity in the whole cell assay, type 1 isoenzyme, in words ([1]; whole cell assay): active; IC50 [2]: 7 µM; inhibition at 100 µM ([2]; read-out: HRED1 % Inhibition @ 100 uM): 99%; IC50 [3]: 21 µM; inhibition at 100 µM ([3]; read-out: HRED2 % Inhibition @ 100 uM): 99%; inhibition at 100 µM [4]: 99%
2 | COc1cc(CCNC(=O)C=Cc2ccc(O)c(O)c2)ccc1O [HZIV 90] | > 100 µM | 34% | > 100 µM | – | – | – | – | 14% | HRED1 % Inhibition @ 100 uM [2, 8]: 23%; IC50 [2, 9]: > 100 µM; HRED2 % Inhibition @ 100 uM [3, 8]: 13%; IC50 [3, 10]: > 100 µM
3 | COc1cc(C(=O)C=Cc2ccc(N(C)C)cc2)cc(OC)c1OC [HZIV-82] | > 100 µM | 79% | 3 µM | – | – | – | – | 15% | inhibitory activity in the whole cell assay, type 1 isoenzyme, in words ([1]; whole cell assay): very active; HRED1 % Inhibition @ 100 uM [2, 8]: 43%; IC50 [2, 9]: > 100 µM; inhibitory activity against type 1 isoenzyme, in words [2]: little activity; HRED2 % Inhibition @ 100 uM [3, 8]: 0%; IC50 [3, 10]: > 100 µM
4 | O=c1c(O)c(-c2ccc(O)cc2)oc2cc(O)cc(O)c12 [Kaempferol] | 20 µM | – | 79 µM | – | – | – | – | – | inhibition at 100 µM ([1]; whole cell assay, Table 7): 60%; inhibition at 100 µM ([2]; 100 uM, cell free assay, Table 1, read-out: HRED1 % Inhibition @ 100 uM): 22%; IC50 ([2]; cell free assay, Table 1 flavanoids, read-out: HRED1 IC50): > 100 µM; inhibition at 100 µM ([3]; 100 uM, cell free assay, Table 1, read-out: HRED2 % Inhibition @ 100 uM): 62%; IC50 ([3]; cell free assay, Table 1 flavanoids, read-out: HRED2 IC50): 12 µM; inhibitory activity in the whole cell assay, type 2 isoenzyme, in words [4]: significant inhibitory activity; inhibition at 100 µM [4]: 85%
5 | CCCCC/C=C\C/C=C\CCCCCCCC(=O)O [Linoleic Acid, Linoleic Acid C18:2 CIS 9,12] | 25 µM | – | 40 µM | – | – | – | – | – | IC50 ([2]; cell free assay, Table 6 fatty acids, read-out: HRED1 IC50): 9 µM; IC50 ([3]; cell free assay, Table 6 fatty acids, read-out: HRED2 IC50): 19 µM
6 | CC1=CC(=O)c2ccccc2C1=O [Menadione] | 79 µM | – | – | – | – | – | – | – | inhibition at 100 µM ([1]; whole cell assay, Table 7): 82%; IC50 ([1]; HCRED1 IC50, whole cell assay, Table 7): 51 µM; inhibitory activity in the whole cell assay, type 1 isoenzyme, in words ([1]; whole cell assay): moderate activity; IC50 [2]: 6 µM; inhibitory activity against type 1 isoenzyme, in words [2]: potent cell-free inhibitors; inhibition at 100 µM ([2]; read-out: HRED1 % Inhibition @ 100 μM): 77%; inhibition at 100 µM ([3]; 100 μM, cell free assay, Table 4, read-out: HRED2 % Inhibition @ 100 μM): 81%; IC50 ([3]; cell free assay, Table 4 quinones, read-out: HRED2 IC50): 5 µM; inhibitory activity against type 2 isoenzyme, in words ([3]; cell-free assay): potent cell-free inhibitors; inhibition at 100 µM [4]: 62%
7 | COC(=O)c1cc(O)c(O)c(O)c1 [Methylgallate] | > 100 µM | – | > 100 µM | – | – | – | – | – | inhibition at 100 µM ([1]; whole cell assay, Table 7): 0%; inhibition at 100 µM [2, 11]: 5%; IC50 [2, 9]: > 100 µM; inhibition at 100 µM [3, 12]: 3%; IC50 [3, 10]: > 100 µM; inhibition at 100 µM [4]: 0%
8 | CCCCCCCCOC(=O)c1cc(O)c(O)c(O)c1 [Octyl Gallate] | 18 µM | – | 7 µM | – | – | – | – | – | inhibition at 100 µM ([1]; whole cell assay, Table 7): 99%; inhibitory activity in the whole cell assay, type 1 isoenzyme, in words ([1]; whole cell assay): active; inhibition at 100 µM [2, 11]: 99%; IC50 [2, 9]: 27 µM; inhibition at 100 µM [3, 12]: 90%; IC50 [3, 10]: 58 µM; inhibition at 100 µM [4]: 94%

Second part, led by results:

Row | IC50 [4] | HRED1 % Inhibition @ 100 μM ([1]; whole cell assay, Table 7) | IC50 [1, 5] | HRED1 % Inhibition @ 100 μM ([2]; cell free assay) | IC50 [2, 6] | HRED2 % Inhibition @ 100 μM ([3]; 100 μM, cell free assay) | IC50 [3, 7] | HRED2 % Inhibition @ 100 μM [4] | SMILES | further results
9 | > 100 µM | 12% | > 100 µM | 94% | 311 µM | 20% | > 100 µM | 7% | COc1cc(C(=O)OC2Cc3c(O)cc(O)cc3OC2c2cc(O)c(O)c(O)c2)cc(OC)c1OC (stereo not shown) [HZIV 63] | –
10 | > 100 µM | 40% | > 100 µM | 93% | 29 µM | 51% | 99 µM | 34% | Cc1c(O)cc(C(=O)OC2Cc3c(O)cc(O)cc3OC2c2cc(O)c(O)c(O)c2)cc1O (stereo not shown) [HZIV 68] | –
11 | 62 µM | 83% | 43 µM | 97% | 29 µM | 21% | > 100 µM | 72% | COc1cc(C(=O)OC2Cc3c(O)cc(O)cc3OC2c2cc(O)c(O)c(O)c2)cc(OC)c1O (stereo not shown) [HZIV 75] | –
12 | 80 µM | 94% | 64 µM | 98% | 23 µM | 45% | > 100 µM | 62% | CN(C)c1ccc(C(=O)OC2Cc3c(O)cc(O)cc3OC2c2cc(O)c(O)c(O)c2)cc1 (stereo not shown) [HZIV 92] | –
13 | > 100 µM | 23% | > 100 µM | 52% | 98 µM | 39% | > 100 µM | 2% | O=C(OC1Cc2c(O)cc(O)cc2OC1c1cc(O)c(O)c(O)c1)c1ccncc1 (stereo not shown) [HZIV 107] | –
14 | 57 µM | 97% | 49 µM | 99% | 23 µM | 97% | 66 µM | 96% | O=C(OC1Cc2c(O)cc(O)cc2OC1c1cc(O)c(O)c(O)c1)c1ccc2ccccc2c1 (stereo not shown) [HZIV 120] | –
15 | 14 µM | 99% | 8 µM | 97% | 25 µM | 93% | 63 µM | 98% | CCCCCC=CCC=CCC=CCCCCC(=O)OC1Cc2c(O)cc(O)cc2OC1c1cc(O)c(O)c(O)c1 (stereo not shown) [HZIV 142] | –
16 | > 100 µM | 12% | > 100 µM | 88% | 49 µM | 38% | > 100 µM | 7% | O=C(OC1Cc2c(O)cc(O)cc2OC1c1cc(O)c(O)c(O)c1)C1CCCCC1 (stereo not shown) [HZIV 144] | –
17 | > 100 µM | 8% | > 100 µM | 35% | > 100 µM | 8% | > 100 µM | 9% | CC(=O)OC1Cc2c(O)cc(O)cc2OC1c1cc(O)c(O)c(O)c1 (stereo not shown) [HZIV 145] | –
18 | 74 µM | 90% | 42 µM | 31% | > 100 µM | 0% | > 100 µM | 81% | CCCCCCCCCCCCCCCCCC(=O)OC1Cc2c(O)cc(O)cc2OC1c1cc(O)c(O)c(O)c1 (stereo not shown) [HZIV 148] | –
19 | 8 µM | 99% | 7 µM | 99% | 29 µM | 96% | 76 µM | 98% | CCCCC=CCCCCCCCC(=O)OC1Cc2c(O)cc(O)cc2OC1c1cc(O)c(O)c(O)c1 (stereo not shown) [HZIV 160] | inhibitory activity in the whole cell assay, type 1 isoenzyme, in words ([1]; whole cell assay): effective; inhibitory activity against type 1 isoenzyme, in words [2]: effective
20 | > 100 µM | 10% | > 100 µM | 90% | 47 µM | 39% | > 100 µM | 0% | CCCCCC(=O)OC1Cc2c(O)cc(O)cc2OC1c1cc(O)c(O)c(O)c1 (stereo not shown) [HZIV 169] | –
